According to patent US20190119282A1, “IMIDAZOPYRIDAZINES USEFUL AS INHIBITORS OF THE PAR-2 SIGNALING PATHWAY” (Vertex Pharmaceuticals Incorporated, priority 2013, published 2019):

Assays:
[1] = target: T1, PAR2 (HT-29 cells, SLIGKV activation) (Homo sapiens, UniProt P55085); assay: Ca FLIPR TETRA assay, ANTAGONIST mode, stimulation with 8 μM SLIGKV; format: cell-based; settings: HT-29 cells, stimulation with 8 μM SLIGKV
T1 construct: host or cells: HT-29 cells
T1 sequence (P55085 26-397): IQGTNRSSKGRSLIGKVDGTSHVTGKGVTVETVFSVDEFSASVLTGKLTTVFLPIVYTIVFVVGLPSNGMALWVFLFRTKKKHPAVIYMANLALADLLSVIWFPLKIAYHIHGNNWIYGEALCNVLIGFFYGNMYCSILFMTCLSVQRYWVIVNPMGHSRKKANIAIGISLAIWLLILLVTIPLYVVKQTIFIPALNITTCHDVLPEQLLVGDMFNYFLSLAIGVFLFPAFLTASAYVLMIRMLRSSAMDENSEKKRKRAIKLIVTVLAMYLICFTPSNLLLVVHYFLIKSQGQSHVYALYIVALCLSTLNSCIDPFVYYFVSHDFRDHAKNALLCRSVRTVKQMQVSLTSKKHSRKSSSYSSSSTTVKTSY
In short: (§1)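 Antagonist-mode assay: dye-loaded HT-29 cells, compound 30 min at r.t., then stimulated with final 8 μM SLIGKV, 3.1 U/mL trypsin, 1 U/mL thrombin or 0.6 μM UTP; calcium fluorescence read.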

[2] = target: T2, PAR2 (HT-29 cells, trypsin activation) (Homo sapiens, UniProt P55085); assay: Ca FLIPR TETRA assay, ANTAGONIST mode, stimulation with 3.1 U/mL trypsin; format: cell-based; settings: HT-29 cells, stimulation with 3.1 U/mL trypsin
T2 construct: host or cells: HT-29 cells
T2 sequence (P55085 26-397): T1 sequence (P55085 26-397)
In short: as §1

[3] = system: UTP-stimulated Ca2+ response in HT-29 cells; assay: Ca FLIPR TETRA assay, ANTAGONIST mode, stimulation with 0.6 μM UTP; format: cell-based, human; settings: Homo sapiens, HT-29 cells, stimulation with 0.6 μM UTP
In short: as §1

[4] = system: Thrombin-stimulated Ca2+ response in HT-29 cells; assay: Ca FLIPR TETRA assay, ANTAGONIST mode, stimulation with 1 U/mL Thrombin; format: cell-based, human; settings: Homo sapiens, HT-29 cells, stimulation with 1 U/mL Thrombin
In short: as §1

SMILES	IC50 [1]	IC50 [2]	IC50 [3]	IC50 [4]	IC50 ([1]; antagonist mode)	IC50 ([2]; antagonist mode)	IC50 ([3]; antagonist mode)	IC50 ([4]; antagonist mode)
CC(C)c1cc(-c2ccc(F)cc2)nn2cc(C(=O)N3CCN(C(=O)[C@H](O)C4CCCCC4)[C@@H](C)C3)nc12 [Compound I-114]	0.5 nM	0.6 nM	8700 nM	7700 nM				
CC(C)c1cc(-c2cccc(F)c2)nn2cc(C(=O)N3CCN(C(=O)C(C)(C)O)CC3(C)C)nc12 [Compound I-250]					57 nM	128 nM	> 1000 nM	> 1000 nM
CC(C)(C)OC(=O)N1CCN(C(=O)c2cn3nc(-c4ccc(F)cc4)cc(C(C)(C)C)c3n2)C(C)(C)C1 [Compound I-190]					4.2 nM	4.8 nM	> 50000 nM	> 50000 nM
CC(C)(C)c1cc(-c2ccc(F)cc2)nn2cc(C(=O)N3CCNCC3(C)C)nc12 [Compound I-205]					310 nM	580 nM	> 1000 nM	> 1000 nM
COC(=O)CN1CCN(C(=O)c2cn3nc(-c4ccc(F)cc4)cc(C(C)(C)C)c3n2)C(C)(C)C1=O [Compound I-503]					3.9 nM	4.6 nM	> 1000 nM	> 1000 nM
CC(C)(C)c1cc(-c2ccc(F)cc2)nn2cc(C(=O)N3CCN(C(F)F)C(=O)C3(C)C)nc12 [Compound I-208]					85 nM	103 nM	> 1000 nM	> 1000 nM
Cc1ccc(-c2cc(C(C)(C)C)c3nc(C(=O)N4CCN(c5c[nH]c(C)n5)C(=O)C4(C)C)cn3n2)cc1 [Compound I-368]					5.2 nM	6.8 nM	> 1000 nM	> 1000 nM
CC(C)(C)c1cc(-c2ccc(F)cc2)nn2cc(C(=O)N3CCN(c4cn[nH]n4)C(=O)C3(C)C)nc12 [Compound I-359]					1 nM	1.1 nM	> 1000 nM	> 1000 nM
Cc1n[nH]c(C(=O)N2CCN(C(=O)c3cn4nc(-c5ccc(C)c(F)c5)cc(C(C)C)c4n3)C(C)(C)C2)n1 [Compound I-339]					1.9 nM	1.9 nM	> 1000 nM	> 1000 nM
CC(C)c1cc(-c2ccc(F)c(F)c2)nn2cc(C(=O)N3CCNC(=O)C3(C)C)nc12 [Compound I-243]					4.1 nM	8.5 nM	> 1000 nM	> 1000 nM
CC(C)c1cc(-c2ccc(C(F)(F)F)c(F)c2)nn2cc(C(=O)N3CCN(C(=O)c4ccncn4)CC3(C)C)nc12 [Compound I-278]					2.1 nM	2.8 nM	> 1000 nM	> 1000 nM
Cc1ccc(-c2cc(C(C)C)c3nc(C(=O)N4CCN(C(=O)c5nc[nH]n5)CC4(C)C)cn3n2)cc1 [Compound I-331]					11.4 nM	6.9 nM	> 1000 nM	> 1000 nM
CC(C)(C)c1cc(-c2ccccc2)nn2cc(C(=O)N3CCNC(=O)C3(C)C)nc12 [Compound I-348]					4 nM	5.1 nM	360 nM	673 nM
Cc1nnc(C(=O)N2CCN(C(=O)c3cn4nc(-c5ccc(C)c(F)c5)cc(C(C)C)c4n3)C(C)(C)C2)o1 [Compound I-337]					5.4 nM	4.5 nM	> 1000 nM	> 1000 nM
CC(C)c1cc(-c2ccc(F)cc2)nn2cc(C(=O)N3CCN(C(=O)c4ccon4)CC3(C)C)nc12 [Compound I-321]					1.5 nM	2.8 nM	> 1000 nM	> 1000 nM
Cc1cc(C(=O)N2CCN(C(=O)c3cn4nc(-c5ccc(F)cc5)cc(C(C)(F)F)c4n3)C(C)(C)C2)[nH]n1 [Compound I-355]					9.6 nM	7 nM	> 1000 nM	> 1000 nM
Cc1cc(C(=O)N2CCN(C(=O)c3cn4nc(-c5ccc(Cl)c(F)c5)cc(C(C)(C)C)c4n3)C(C)(C)C2)[nH]n1 [Compound I-450]					0.1 nM	0.3 nM	> 1000 nM	> 1000 nM
CC(C)c1cc(-c2ccc(F)cc2)nn2cc(C(=O)N3CCN(C(=O)[C@H](O)CC4CC4)[C@@H](C)C3)nc12 [Compound I-171]	3 nM	5 nM	15000 nM	15000 nM				
Cc1cc(-c2cc(C(C)C)c3nc(C(=O)N4CCN(C(=O)[C@H]5C[C@@](O)(C(F)(F)F)C5)CC4(C)C)cn3n2)ccc1F [Compound I-265]					3.9 nM	5.6 nM	> 1000 nM	570 nM
CCc1cc(-c2ccc(F)cc2)nn2cc(C(=O)N3CCN(C(=O)[C@H](O)CC4CC4)[C@@H](C)C3)nc12 [Compound I-170]	14 nM	38 nM	30000 nM	33000 nM				
CC(C)c1cc(C(C)C)c2nc(C(=O)N3CCN(C(=O)C4CCC(C(=O)O)CC4)CC3(C)C)cn2n1 (stereo not drawn) [Compound I-551, 4-[4-(6,8-diisopropylimidazo[1,2-b]pyridazine-2-carbonyl)-3,3-dimethyl-piperazine-1-carbonyl]cyclohexanecarboxylic acid]					970 nM	1500 nM	> 30000 nM	> 30000 nM
CC(C)(C)c1cc(-c2ccc(F)c(Cl)c2)nn2cc(C(=O)N3CCNC(=O)C3(C)C)nc12 [Compound I-438]					1.5 nM	2.6 nM	> 1000 nM	> 1000 nM
CC(C)c1cc(C2=CCCCC2)nn2cc(C(=O)N3CCN(C(=O)C4(O)CCC4)CC3(C)C)nc12 [Compound I-40, [6-(Cyclohexen-1-yl)-8-isopropyl-imidazo[1,2-b]pyridazin-2-yl]-[4-(1-hydroxycyclobutanecarbonyl)-2,2-dimethyl-piperazin-1-yl]methanone]	72 nM	370 nM	17000 nM	24000 nM				
Cc1nnc(C(=O)N2CCN(C(=O)c3cn4nc(-c5ccc(C(F)(F)F)cc5)cc(C(C)(C)C)c4n3)C(C)(C)C2)o1 [Compound I-400]					3.6 nM	2.8 nM	> 1000 nM	> 1000 nM
CC(C)(C)c1cc(-c2ccc(F)cc2)nn2cc(C(=O)N3CCN(C(=O)c4ncccn4)CC3(C)C)nc12 [Compound I-285]					1.8 nM	2.6 nM	> 1000 nM	650 nM
Cc1ccc(-c2cc(C(C)(C)C)c3nc(C(=O)N4CCN(C(=O)c5ccn[nH]5)CC4(C)C)cn3n2)cc1 [Compound I-394]					0.9 nM	1.1 nM	> 1000 nM	> 1000 nM
Cc1nc(N2CCN(C(=O)c3cn4nc(-c5ccc(C)c(F)c5)cc(C(C)(C)C)c4n3)C(C)(C)C2=O)c[nH]1 [Compound I-369]					5.4 nM	7.3 nM	> 1000 nM	> 1000 nM
Cc1cc(-c2cc(C(C)C)c3nc(C(=O)N4CCN(c5cn[nH]c5)C(=O)C4(C)C)cn3n2)ccc1F [Compound I-405]					1.6 nM	1.8 nM	> 1000 nM	> 1000 nM
C=CC(=O)N1CCN(C(=O)c2cn3nc(-c4ccc(F)cc4)cc(C(C)C)c3n2)C(C)(C)C1 [Compound I-160]	10 nM	41 nM	14000 nM	7900 nM				
CC(C)C[C@@H](O)C(=O)N1CCN(C(=O)c2cn3nc(-c4ccc(F)cc4)cc(C(C)C)c3n2)C[C@@H]1C [Compound I-105]	0.4 nM	0.8 nM	8800 nM	10000 nM				
